This is an account of results in paper PMC12784406, “IscS Kinetics in Native Mass Spectrometry Buffers Reveal Key Physiochemical Properties that Influence Enzyme Activity” (Journal of the American Society for Mass Spectrometry, 2025).

The target in this experiment is T1, IscS (Escherichia coli, UniProt P0A6B7).
T1 construct: pET vector, expressed in E. coli BL21(DE3), HisTrap Ni-NTA and Sephacryl S-300 purified; homodimer
Description: methylene blue sulfide detection assay, […] nm, anaerobic. The experiment is classed as biochemical. The following applies: 50 mM Tris/150 mM NaCl, pH 8.5, 37 °C, 4 mM DTT; IscS 0.5 uM, without IscU; L-cysteine varied.

T1 sequence (P0A6B7 whole entry): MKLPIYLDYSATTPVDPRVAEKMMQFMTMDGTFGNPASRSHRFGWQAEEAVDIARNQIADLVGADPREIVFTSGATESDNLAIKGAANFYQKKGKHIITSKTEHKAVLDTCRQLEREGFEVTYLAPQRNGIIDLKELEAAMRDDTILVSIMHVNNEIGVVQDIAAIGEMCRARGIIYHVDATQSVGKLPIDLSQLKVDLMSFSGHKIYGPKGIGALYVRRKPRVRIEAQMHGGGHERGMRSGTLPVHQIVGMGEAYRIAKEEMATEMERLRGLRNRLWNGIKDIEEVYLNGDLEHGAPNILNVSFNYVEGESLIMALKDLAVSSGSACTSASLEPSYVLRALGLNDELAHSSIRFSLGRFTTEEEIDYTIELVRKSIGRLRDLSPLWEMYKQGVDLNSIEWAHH

Consider `N[C@@H](CS)C(=O)O` [L-cysteine], for which the “methylene blue sulfide detection assay, 670 nm, anaerobic” value is recorded as “Sulfide production was quantitated at different L-cysteine concentrations to determine the k cat values”.
